From patent publication EP0348713A1, “(R,S)-3-(4-phenyl-1-piperazinyl)-1,2-propanediol salts” (DOTT. FORMENTI S.P.A. INDUSTRIA CHIMICA E FARMACEUTICA, priority 1988, dated 1990)
Counter-ions that a name gives are not always drawn.

Assay: colour stability in pharmaceutical formulations (undesired colors due to degradation products)
Format: physicochemical
Conditions: particularly suppositories
Excerpt: Said colors, due to degradation products, are evidenced also when using the hydrochloride, whereas they are completely removed when a salt according to the invention is used.

SMILES: OCC(O)CN1CCN(c2ccccc2)CC1 (stereo not shown) [hydrochloride]
- undesired colors occuring in the long run: evidenced
